Data on 15 compounds can be found in patent US9822139B2, “Pharmaceutical composition containing cyclometalated N-heterocyclic carbene complexes for cancer treatment” (THE UNIVERSITY OF HONG KONG, priority 2009, dated 2017).

The test system of test [1] is hepatocellular carcinoma (HepG2). Kind of test: MTT cytotoxicity assay, HepG2. The test is classed as cell-based, human. Particulars: 72 h. As to the method:
(§1) Example 2 describes the in vitro cytotoxicity, which is indicative of the induction of cell death and/or inhibition of cellular proliferation of cancer cells, of the cyclometalated N-heterocyclic complexes on cervical epithelioid carcinoma, hepatocellular carcinoma, leukemia, nasopharyngeal carcinoma, breast carcinoma, melanoma, and lung carcinoma.
(§2) By means of MTT assays, the cytotoxic properties of cyclometalated N-heterocyclic carbene complexes (1-25) were determined toward some established human cancer cell lines including hepatocellular carcinoma (HepG2), cervical epithelioid carcinoma (HeLa), epithelial carcinoma (KB and its camptothecin-resistant cell line KB100), non-small cell lung carcinoma (NCI-H460), leukemia (HL-60), breast carcinoma (MDA-MB-231), melanoma (B16) and nasopharyngeal carcinoma (SUNE1). […] In terms of the IC50 values, they display similar cytotoxic properties compared to the reference complexes cisplatin and camptothecin (CPT).

Test [2] deals with cervical epithelioid carcinoma (HeLa). Kind of test: MTT cytotoxicity assay, HeLa. It counts as cell-based, human. Particulars: 72 h. As to the method: as §1, §2
The subject of test [3] is epithelial carcinoma (KB). Kind of test: MTT cytotoxicity assay, KB. It counts as cell-based, human. To be noted: 72 h. On the procedure: as §1, §2
In test [4] the test system is camptothecin-resistant cell line KB100. Kind of test: MTT cytotoxicity assay, KB100. The test is classed as cell-based, human. Particulars: 72 h. As to the method:
as §1, §2

In test [5] the test system is nasopharyngeal carcinoma (SUNE1). Kind of test: MTT cytotoxicity assay, SUNE1. It counts as cell-based, human. Particulars: 72 h. On the procedure:
as §1, §2

The test system of test [6] is non-small cell lung carcinoma (NCI-H460). Kind of test: MTT cytotoxicity assay, NCI-H460. The test is classed as cell-based, human. Particulars: 72 h. As to the method: as §1, §2
The subject of test [7] is breast carcinoma (MDA-MB-231). Kind of test: MTT cytotoxicity assay, MDA-MB-231. It counts as cell-based, human. To be noted: 72 h, MBA-MD-231. As to the method: as §1, §2
In a further test the test system is melanoma (B16). Kind of test: MTT cytotoxicity assay, B16. The test is classed as cell-based, mouse. To be noted: 72 h. On the procedure:
as §1, §2

The subject of another test is leukemia (HL-60). Kind of test: MTT cytotoxicity assay, HL-60. The test is classed as cell-based, human. Particulars: 72 h. As to the method:
as §1, §2

For test [8], the system named is lung fibroblast cells (CCD-19Lu). Kind of test: MTT cytotoxicity to non-cancerous cells, CCD-19Lu. Particulars: 72 h, non-cancerous lung fibroblast cells CCD-19Lu. It counts as cell-based, human. On the procedure: as §2
Using lung fibroblast cells (CCD-19Lu), the cytotoxicity of the complexes to non-cancerous cells was also examined.

For another test, the system named is KB cells. Kind of test: Alkaline comet assay for DNA strand breaks. The test is classed as cell-based.

Each structure is given as a SMILES string.

With `COc1ccc(-c2cc3[n+]4c(c2)-c2cc5ccccc5c[c]2[Au-]4([c]2n(C)cc[n+]2C)[c]2cc4ccccc4cc2-3)cc1.O=S(=O)([O-])C(F)(F)F` [Complex 8], the IC50 in [1] stood at 1 µM; in test [2], 0.5 µM; in [3] it was 0.42 µM; in [4] it was 18 µM; in [5], 0.26 µM; in [6], 0.18 µM. Further, the IC50 in test [7] was 0.96 µM; in the test with melanoma (B16) it was 0.56 µM; with leukemia (HL-60) it was 0.13 µM; in test [8], 0.89 µM.
`CCCn1cc[n+](CCC)[c]1[Pt-2]12[c]3ccccc3-c3cccc([n+]31)-c1cccc[n+]12.F[P-](F)(F)(F)(F)F` (stereo not shown) [Complex 13]: the IC50 in test [1] turned out to be 1.1 µM; in test [2] it was 0.05 µM; in [3], 0.14 µM; in [4], 0.13 µM; in test [5], 0.16 µM; in test [6] it was 0.18 µM. Moreover, the IC50 in [7] was 0.28 µM; in the test with melanoma (B16) it was 0.42 µM; with leukemia (HL-60), 0.56 µM; in test [8] it was 12 µM.
As for `Cn1cc[n+](C)[c]1[Pt-2]12[c]3ccccc3-c3cccc([n+]31)-c1cccc[n+]12.F[P-](F)(F)(F)(F)F` (stereo not shown) [Complex 11], the IC50 is 0.31 µM in [1]; 0.33 µM in test [2]; 0.66 µM in test [3]; 0.62 µM in test [4]; 0.51 µM in [5]; 0.58 µM in test [6]. Besides, the IC50 was 1.5 µM in [7], 3.1 µM with melanoma (B16), 0.58 µM in the test on leukemia (HL-60) and 5.7 µM in test [8].
For `CCCCn1cc[n+](C[n+]2ccn(CCCC)[c]2[Au-]23[c]4ccccc4-c4cccc([n+]42)-c2cccc[c]23)[c]1[Au-]12[c]3ccccc3-c3cccc([n+]31)-c1cccc[c]12.O=S(=O)([O-])C(F)(F)F.O=S(=O)([O-])C(F)(F)F` [Complex 2], the IC50 is 7.9 µM in test [1]; 7.8 µM in test [2]; 10 µM in test [3]; 28 µM in test [4]; 3.3 µM in [5]; 3 µM in test [6]. Besides, the IC50 in test [7] is 4.2 µM; in the test with melanoma (B16), 10 µM; in the test on leukemia (HL-60), 5.9 µM; in test [8], more than 100 µM.
With `CCCC[n+]1ccn(Cn2cc[n+](CCCC)[c]2[Pt-2]23[c]4ccccc4-c4cccc([n+]42)-c2cccc[n+]23)[c]1[Pt-2]12[c]3ccccc3-c3cccc([n+]31)-c1cccc[n+]12.F[P-](F)(F)(F)(F)F.F[P-](F)(F)(F)(F)F` (stereo not shown) [Complex 15], the IC50 came out at 9.4 µM in test [1], 8 µM in [2], 6.4 µM in [5] and 40 µM in test [8].
With `CC(C)c1cc(C(C)C)c(-n2cc[n+](-c3c(C(C)C)cc(C(C)C)cc3C(C)C)[c]2[Au-]23[c]4ccccc4-c4cccc([n+]42)-c2cccc[c]23)c(C(C)C)c1.O=S(=O)([O-])C(F)(F)F` [Complex 4], the IC50 stood at 1.9 µM in test [1]; 2.7 µM in test [2]; 3.6 µM in test [3]; 4.5 µM in test [4]; 5.5 µM in test [5]; 6.2 µM in test [6]. The half-inhibitory concentration (IC50) in test [7] was found to be 3.7 µM; in the test with melanoma (B16), 7.7 µM; with leukemia (HL-60) it was 1.1 µM; in test [8] it was 11 µM.
For `Cc1cc(C)c(-[n+]2ccn(CC(=O)c3ccccc3)[c]2[Au-]23[c]4ccccc4-c4cccc([n+]42)-c2cccc[c]23)c(C)c1.O=S(=O)([O-])C(F)(F)F` [Complex 5], the IC50 in test [1] came out at 2.6 µM; in test [2] it was 3.5 µM; in test [3] it was 4.4 µM; in test [4], 4 µM; in test [5], 3.4 µM; in [6], 9.5 µM. Moreover, the IC50 in test [7] worked out at 13 µM; in the test with melanoma (B16) it was 2.1 µM; in the test on leukemia (HL-60), 1.2 µM; in [8] it was 11 µM.
On to `N.N.[Cl][Pt][Cl]` [cisplatin, reference compound], for which the IC50 in test [1] is 14.6 µM; in test [2] it was 14.9 µM; in [5], 2.4 µM; in [8], more than 100 µM.
`CCCCn1cc[n+](C[n+]2ccn(CCCC)[c]2[Au-]23[c]4cc5ccccc5cc4-c4cc(-c5ccc(OC)cc5)cc([n+]42)-c2cc4ccccc4c[c]23)[c]1[Au-]12[c]3cc4ccccc4cc3-c3cc(-c4ccc(OC)cc4)cc([n+]31)-c1cc3ccccc3c[c]12.O=S(=O)([O-])C(F)(F)F.O=S(=O)([O-])C(F)(F)F` [Complex 9]: the IC50 amounted to 4.5 µM in test [1]; 7.2 µM in [2]; 5 µM in [3]; 3.8 µM in test [4]; 4.5 µM in test [5]; 5.5 µM in test [6]. The IC50 in test [7] is 6.2 µM; in the test on melanoma (B16), 9.1 µM; with leukemia (HL-60), 7.1 µM; in [8] it was 9.9 µM.
In the case of `COc1cccc2c1C(=O)c1c(O)c3c(c(O)c1C2=O)C[C@@](O)(C(=O)CO)C[C@@H]3O[C@H]1C[C@H](N)[C@H](O)[C@H](C)O1` [doxorubicin], the “strand breaks on chromosomal DNA (comet assay)” value in the test with KB cells (1 μg/ml, 3 h, KB cells) was “induced extensive strand breaks on chromosomal DNA”. Further, in the test on KB cells (second incubation at 55° C. for 10 min), the “reversal of DNA cleavage events upon second incubation” value is on record as “not”.
For the compound `CCCC[n+]1ccn(CCCn2cc[n+](CCCC)[c]2[Pt-2]23[c]4ccccc4-c4cccc([n+]42)-c2cccc[n+]23)[c]1[Pt-2]12[c]3ccccc3-c3cccc([n+]31)-c1cccc[n+]12.F[P-](F)(F)(F)(F)F.F[P-](F)(F)(F)(F)F` (stereo not shown) [Complex 16], the IC50 in test [1] is 7.1 µM; in test [2], 3.9 µM; in test [5], 5.6 µM; in test [8], 27 µM.
Regarding `CCn1cc[n+](CC)[c]1[Pt-2]12[c]3ccccc3-c3cccc([n+]31)-c1cccc[n+]12.F[P-](F)(F)(F)(F)F` (stereo not shown) [Complex 12], the IC50 in test [1] worked out at 1.3 µM; in [2], 0.48 µM; in test [3], 0.89 µM; in test [4], 0.77 µM; in test [5], 0.32 µM; in [6], 0.57 µM. The half-inhibitory concentration (IC50) was determined as 1.2 µM in [7], 1.8 µM with melanoma (B16), 0.52 µM in the test on leukemia (HL-60) and 2.1 µM in test [8].
For `CCCCn1cc[n+](CCO)[c]1[Pt-2]12[c]3ccccc3-c3cccc([n+]31)-c1cc3ccccc3c[n+]12.F[P-](F)(F)(F)(F)F` (stereo not shown) [Complex 25], the IC50 in test [1] worked out at 0.68 µM; in test [2] it was 0.45 µM; in [5], 0.88 µM; in test [8], 11 µM.
For `Cc1cc(C)c(-[n+]2ccn(CCCO)[c]2[Pt-2]23[c]4ccccc4-c4cccc([n+]42)-c2cccc[n+]23)c(C)c1.F[P-](F)(F)(F)(F)F` (stereo not shown) [Complex 23], in that order: 0.78 µM, 0.48 µM, 0.94 µM and 7.5 µM.
For `CCCn1cc[n+](CCC)[c]1[Pt-2]12[c]3ccccc3-c3cccc([n+]31)-c1cc3ccccc3c[n+]12.F[P-](F)(F)(F)(F)F` (stereo not shown) [Complex 24], in that order: 0.88 µM, 0.55 µM, 0.71 µM and 12 µM.
